The results in this text go back to patent publication EP2366431A1, “Myeloperoxidase as a target in atrial fibrillation” (Universitätsklinikum Hamburg-Eppendorf, priority 2010, dated 2011).

For one assay, the system named is WT mice. As to the kind of experiment: MPO content in mouse plasma and atrial tissue (ELISA) after angiotensin II infusion. In kind it is in vivo. Conditions: 2 week subcutaneous infusion of AngII. As for the experimental part:
(§1) Angiotensin II and myeloperoxidase treatment of mice. We treated male C57BL/6J (WT) and MPOtmllus mice (Mpo^-/^-) on a C57BL/6 background, aged 12-15 weeks, via ALZET osmotic pumps with angiotensin II (AngII, 1.5 ng/g body weight/minute) or saline (vehicle) for 14 days prior to electrophysiological investigation (EPI). We treated another cohort of WT and Mpo^-/- mice via ALZET osmotic pumps with a connected jugular catheter with recombinant MPO (5.0, 12.5 and 50 pg/g body weight/minute, which we calculated to generate physiological plasma levels of MPO ranging between 100 and 1100 pM, respectively) or recombinant human serum albumin (HSA) for 7 days in combination with either AngII or saline prior to EPI. Animal experiments, conformed with the Guide for the Care and Use of Laboratory Animals published by the US National Institutes of Health and were approved by the review board of Hamburg and Bonn.
Assessment of MPO content in human and mouse plasma and atrial tissue. We determined MPO levels by ELISA (human: Prognostix, Cleveland, USA; mouse: hycult biotechnology, The Netherlands).
(An ELISA detects its analyte on a solid surface through an enzyme-linked reagent.)

The test system of assay [1] is WT and Mpo^-/- mice. Briefly: Electrophysiological investigation (EPI), induction of AF by right atrial stimulation, surface ECG. The assay is classed as in vivo. Here is the method:
as §1
Electrophysiological investigation (EPI). We examined mice electrophysiologically using a single catheter technique ^19,32. We analyzed standard ECG-parameters obtained by a 6-lead-surface-ECG. EPI included transvenous atrial and ventricular recording and stimulation^21. For induction of AF, we performed atrial and ventricular burst and programmed atrial stimulations. We defined atrial fibrillation as rapid and fragmented atrial electrograms with irregular AV-nodal conduction for >1 s. AF-episodes persisting >1 min were classified as sustained AF. Number, duration, and probability of inducible AF-episodes were analyzed.

In assay [2] the test system is Langendorff perfused hearts from WT and Mpo^-/- mice. Briefly: Epicardial mapping of Langendorff-perfused hearts. Conditions: atria from AngII treated Mpo^-/- mice, in contrast to AngII challenged WT mice. Here is the method:
as §1
Epicardial mapping of Langendorff-perfused hearts. We determined spontaneous and stimulated myocardial conduction velocities and characteristics of Langendorff perfused hearts by epicardial activation mapping using a 128-electrodearray^21.

For assay [3], the system named is WT and Mpo^-/- mice. As to the kind of experiment: Radiotelemetric blood pressure measurements. Conditions: AngII, Mpo^-/- mice compared with WT mice. The assay is classed as in vivo. As for the experimental part: as §1
Radiotelemetric blood pressure measurements. We performed blood pressure measurements as previously^36. In brief, we inserted the tip of the telemetry device (TA11 PA-C10; Data Sciences International, St. Paul, USA) into the carotid lumen. After 10 days, data acquisition started for 1 minute every 5 minutes for 3 days. […] We recorded blood pressure and heart rate for the following week in MPO treated mice and two weeks in AngII treated animals, respectively.

Take “angiotensin II (DRVYIHPF; Angiotensin-2; UniProt P01019 25-32, looked up) [AngII]”: in the assay with WT mice, the “myocardial deposition of MPO” value is reported as “elevated”. For the same substance, the “circulating MPO plasma levels” value in the assay with WT mice (1.5 ng/g body weight/minute) is “substantially increased”. Also, the “inducibility of AF” value in the assay on WT and Mpo^-/- mice [1] (Mpo^-/- mice, AngII for 14 days) is reported as “did not affect the inducibility of AF”. Further, in the assay on WT and Mpo^-/- mice [1] (WT mice, AngII for 14 days, right atrial electrophysiological stimulation), the “susceptibility for AF (number and duration of AF-episodes, probability of AF induction)” value is recorded as “higher susceptibility for AF”. For the same substance, the P wave duration entry in the assay with WT and Mpo^-/- mice [1] (WT mice, AngII treatment, in vivo surface ECG, p<0.001) is “significant prolongation”. For the same substance, in assay [2], the conduction velocity entry is “no retardation in conduction velocity”. Further, in the assay on WT and Mpo^-/- mice [3], the “blood pressure elevating effect” value is “blunted”.
